Data reported in patent US11446282B2, “Methods of treating mixed dyslipidemia and hypertriglycertdemia” (Kowa Company, Ltd., priority 2017, dated 2022).

Tested on: dyslipidemic patients with renal impairment
Test: Example 3 phase III 52-week trial: cholesterol in lipoprotein subclasses by HPLC
Format: in vivo, human
Settings: 0.2 (0.4) mg/day
Protocol: This was a multicenter, single-arm, open-label, phase III trial. The inclusion criteria were as follows: (1) patients with dyslipidemia aged >20 years at the time of informed consent; (2) men and postmenopausal women; (3) fasting serum TG≥1.70 mmol/L (150 mg/dL) at two consecutive measurements during screening; and (4) patients who followed dietary and physical exercise guidance for >12 weeks before enrollment.
The major exclusion criteria were as follows: (1) patients with fasting serum TG≥5.65 mmol/L (500 mg/dL) during screening; (2) patients with poorly controlled diabetes mellitus (hemoglobin A1c [HbA1c]≥10.5%); (3) patients with concurrent poorly controlled thyroid disease; (4) men with serum creatinine ≥2.5 mg/dL and women with serum creatinine ≥2.0 mg/dL during screening who were already on statin therapy; (5) patients with eGFR<45 mL/min/1.73 m^2 during screening who were already on statin therapy; (6) patients with CK>5ULN (270 IU/L for men, 150 IU/L for women) during screening who were already on statin therapy; (7) patients with serious liver disease (cirrhosis Child-Pugh Class B or higher); (8) patients with gallstones or serious biliary tract disease; (9) patients who had suffered an acute myocardial infarction or stroke within three months before informed consent; and (10) patients with New York Heart Association class III or IV heart failure.
During the screening period (8 weeks prior to treatment initiation), tests were performed twice to determine patient eligibility. Thereafter, eligible patients orally received pemafibrate 0.2 mg/day (twice daily) for 52 weeks. From week 12 of the treatment period onwards, the investigators were instructed that the dose could be increased from 0.2 mg/day to 0.4 mg/day (twice daily) if there was an inadequate response to the initial dose based on fasting serum TG levels ≥1.70 mmol/L (150 mg/dL). Fasting blood and urine samples were collected at each visit. Blood and urine sample in patients with hemodialysis were collected just before dialysis. LDL-C levels were measured using the direct method. […]
The primary efficacy endpoint was the percent change in fasting serum TG from baseline to the last evaluation point. The primary safety endpoints were the incidence of an AE or ADR occurring after drug administration during the study. Secondary efficacy endpoints included percent changes in lipid variables and changes in inflammation variables at week 52 [using the last-observation-carried-forward (LOCF)]. Secondary safety endpoints included changes in the levels of aspartate aminotransferase (AST), ALT, -GT, ALP, serum creatinine, eGFR, and CK at week 52. Each baseline value was defined as (1) the mean of the corresponding values in the first and second tests at the screening examination and at week 0 of the treatment period for fasting serum TG, HDL-C, total cholesterol (TC), LDL-C, and non-HDL-C; and (2) the value at week 0 of the treatment period for the other secondary variables.
The numbers of patients with AEs and ADRs and the incidences of AEs and ADRs were calculated in the analysis of primary safety endpoints. For the secondary efficacy endpoints, one-sample t-tests or Wilcoxon signed-rank tests [for high-sensitivity C-reactive protein (hsCRP) and IL-1] were performed. The secondary safety endpoints were analyzed with Wilcoxon signed-rank tests. A two-sided significance level of 0.05 was used. SAS v. 9.3 (SAS Institute Inc., Cary, N.C., USA) was used for these analyses. Where indicated, the data are expressed as means±standard deviation (SD).

With `CC[C@@H](Oc1cccc(CN(CCCOc2ccc(OC)cc2)c2nc3ccccc3o2)c1)C(=O)O` [Pemafibrate, (2R)-2-[3-({1,3-benzoxazol-2-yl[3-(4-methoxyphenoxy)propyl]amino}methyl)phenoxy]butanoic acid] the “CM-C % Change from baseline at Week 52 (LOCF)” value (“CM-C % Change from baseline” for short) (All Participants) was −64.3%, the “CM-C Week 52 (LOCF)” value (All Participants) was 0.039 mmol/L and the “Large HDL-C % Change from baseline at Week 52 (LOCF)” value (All Participants) was −9.2%. The “Large HDL-C Week 52 (LOCF)” value (All Participants) was 0.115 mmol/L, the “Large LDL-C % Change from baseline at Week 52 (LOCF)” value (“Large LDL-C % Change from baseline” below) (All Participants) was 63.1% and the “Large LDL-C Week 52 (LOCF)” value (All Participants) was 0.748 mmol/L. The “Medium HDL-C % Change from baseline at Week 52 (LOCF)” value (from here on “Medium HDL-C % Change from baseline”) (All Participants) was 19.3%, the “Medium HDL-C Week 52 (LOCF)” value (All Participants) was 0.443 mmol/L and the “Medium LDL-C % Change from baseline at Week 52 (LOCF)” value (“Medium LDL-C % Change from baseline” below) (All Participants) was 17.3%. The “Medium LDL-C Week 52 (LOCF)” value (All Participants) was 1.194 mmol/L, the “Small HDL-C % Change from baseline at Week 52 (LOCF)” value (All Participants) was 24.2% and the “Small HDL-C Week 52 (LOCF)” value (All Participants) was 0.473 mmol/L. For the same compound, the “Small LDL-C % Change from baseline at Week 52 (LOCF)” value (All Participants) was −20.6%, the “Small LDL-C Week 52 (LOCF)” value (All Participants) was 0.517 mmol/L and the “VLDL-C % Change from baseline at Week 52 (LOCF)” value (All Participants) was −24.9%. The “VLDL-C Week 52 (LOCF)” value (All Participants) was 0.866 mmol/L, the “Very large HDL-C % Change from baseline at Week 52 (LOCF)” value (All Participants) was 4.4% and the “Very large HDL-C Week 52 (LOCF)” value (All Participants) was 0.048 mmol/L. For the same compound, the “Very small HDL-C % Change from baseline at Week 52 (LOCF)” value (All Participants) was 27.9%, the “Very small HDL-C Week 52 (LOCF)” value (All Participants) was 0.181 mmol/L and the “Very small LDL-C % Change from baseline at Week 52 (LOCF)” value (All Participants) was −11.6%. The “Very small LDL-C Week 52 (LOCF)” value (All Participants) was 0.210 mmol/L, the “CM-C % Change from baseline” value (eGFR G1 (≥90)) was −54.1% and the “CM-C Week 52 (LOCF)” value (eGFR G1 (≥90)) was 0.064 mmol/L. For the same compound, the “Large HDL-C % Change from baseline at Week 52 (LOCF)” value (eGFR G1 (≥90)) was −14.1%, the “Large HDL-C Week 52 (LOCF)” value (eGFR G1 (≥90)) was 0.107 mmol/L and the “Large LDL-C % Change from baseline” value (eGFR G1 (≥90)) was 54.5%. For the same compound, the “Large LDL-C Week 52 (LOCF)” value (eGFR G1 (≥90)) was 0.724 mmol/L, the “Medium HDL-C % Change from baseline” value (eGFR G1 (≥90)) was 11.4% and the “Medium HDL-C Week 52 (LOCF)” value (eGFR G1 (≥90)) was 0.441 mmol/L. The “Medium LDL-C % Change from baseline” value (eGFR G1 (≥90)) was 15.5%, the “Medium LDL-C Week 52 (LOCF)” value (eGFR G1 (≥90)) was 1.244 mmol/L and the “Small HDL-C % Change from baseline at Week 52 (LOCF)” value (eGFR G1 (≥90)) was 18.1%. For the same compound, the “Small HDL-C Week 52 (LOCF)” value (eGFR G1 (≥90)) was 0.482 mmol/L, the “Small LDL-C % Change from baseline at Week 52 (LOCF)” value (eGFR G1 (≥90)) was −18.0% and the “Small LDL-C Week 52 (LOCF)” value (eGFR G1 (≥90)) was 0.576 mmol/L. For the same compound, the “VLDL-C % Change from baseline at Week 52 (LOCF)” value (eGFR G1 (≥90)) was −24.6%, the “VLDL-C Week 52 (LOCF)” value (eGFR G1 (≥90)) was 0.932 mmol/L and the “Very large HDL-C % Change from baseline at Week 52 (LOCF)” value (eGFR G1 (≥90)) was 0.8%. The “Very large HDL-C Week 52 (LOCF)” value (eGFR G1 (≥90)) was 0.047 mmol/L, the “Very small HDL-C % Change from baseline at Week 52 (LOCF)” value (eGFR G1 (≥90)) was 20.6% and the “Very small HDL-C Week 52 (LOCF)” value (eGFR G1 (≥90)) was 0.186 mmol/L. For the same compound, the “Very small LDL-C % Change from baseline at Week 52 (LOCF)” value (eGFR G1 (≥90)) was −10.3%, the “Very small LDL-C Week 52 (LOCF)” value (eGFR G1 (≥90)) was 0.233 mmol/L and the “CM-C % Change from baseline” value (eGFR G2 (≥60 and <90)) was −63.9%. The “CM-C Week 52 (LOCF)” value (eGFR G2 (≥60 and <90)) was 0.038 mmol/L, the “Large HDL-C % Change from baseline at Week 52 (LOCF)” value (eGFR G2 (≥60 and <90)) was −10.9% and the “Large HDL-C Week 52 (LOCF)” value (eGFR G2 (≥60 and <90)) was 0.115 mmol/L. For the same compound, the “Large LDL-C % Change from baseline” value (eGFR G2 (≥60 and <90)) was 67.7%, the “Large LDL-C Week 52 (LOCF)” value (eGFR G2 (≥60 and <90)) was 0.765 mmol/L and the “Medium HDL-C % Change from baseline” value (eGFR G2 (≥60 and <90)) was 17.7%. The “Medium HDL-C Week 52 (LOCF)” value (eGFR G2 (≥60 and <90)) was 0.448 mmol/L, the “Medium LDL-C % Change from baseline” value (eGFR G2 (≥60 and <90)) was 18.7% and the “Medium LDL-C Week 52 (LOCF)” value (eGFR G2 (≥60 and <90)) was 1.226 mmol/L. The “Small HDL-C % Change from baseline at Week 52 (LOCF)” value (eGFR G2 (≥60 and <90)) was 23.6%, the “Small HDL-C Week 52 (LOCF)” value (eGFR G2 (≥60 and <90)) was 0.477 mmol/L and the “Small LDL-C % Change from baseline at Week 52 (LOCF)” value (eGFR G2 (≥60 and <90)) was −20.6%.
